Read-outs that look alike come from different tables or passages of the source.
Legend:
[1] = Blood-brain barrier penetration test in male ICR mice; format: in vivo, mouse; details: for concentration at 0.5 h / concentration at 3 h: male, 5 mg/kg
Procedure: After intraperitoneal administration (5 mg/kg, 3.3 mL/kg) of the compound (SB1617, 5% DMSO/[…]) according to the present invention to CD-1 (ICR) male mice (7 weeks old, KOATECH, Korea), blood samples were collected using heparinized tubes at designated time points (0.5 and 3 hours) in the orbital venous plexus, mice were sacrificed, and brain tissues were harvested. Plasma and brain homogenate samples were analyzed with an LC-MS/MS analyzer (Agilent 1260, Agilent 6460). The proportion of the compound according to the invention (SB1617) in brain and plasma was calculated.
6-1. In order to evaluate the suitability of the compound (SB1617) according to this invention in vivo, pharmacokinetic properties and blood-brain barrier penetration properties were identified using male ICR mice according to the methods described in Examples 1-15 and 1-16.
In addition, as shown in FIG. 28 and Table 3, it was confirmed that at least 50% of SB1617 was detected in the brain compared to plasma.

[2] = molecular target: T1, DNAJC3 (Homo sapiens, UniProt Q13217); test: Surface plasmon resonance assay; format: binding; details: various concentrations, PBS pH 7.3, 25° C.
T1 sequence (Q13217 32-504): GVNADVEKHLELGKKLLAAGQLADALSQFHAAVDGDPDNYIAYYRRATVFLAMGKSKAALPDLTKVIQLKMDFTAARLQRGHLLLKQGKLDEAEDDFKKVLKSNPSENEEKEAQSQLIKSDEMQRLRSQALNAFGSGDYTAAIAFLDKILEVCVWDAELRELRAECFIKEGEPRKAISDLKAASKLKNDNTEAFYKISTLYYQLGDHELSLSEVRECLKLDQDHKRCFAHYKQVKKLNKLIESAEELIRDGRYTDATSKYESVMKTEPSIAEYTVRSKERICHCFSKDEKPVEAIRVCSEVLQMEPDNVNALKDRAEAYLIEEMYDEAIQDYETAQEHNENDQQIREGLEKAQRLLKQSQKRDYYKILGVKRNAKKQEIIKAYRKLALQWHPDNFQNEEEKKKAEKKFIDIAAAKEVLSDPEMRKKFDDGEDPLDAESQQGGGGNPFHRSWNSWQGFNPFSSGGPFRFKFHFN
Procedure: (§1) Surface plasmon resonance (SPR) assays were performed using a Biacore T100 instrument (GE Healthcare). The recombinant PDIA3 or DNAJC3 protein was immobilized on the CM5 sensor chip (GE Healthcare) through an amide bond by activating the carboxy group on the CM5 sensor chip with a 1:1 mixture of N-ethyl-N′-(3-dimethylaminopropyl)-carbodiimide and N-hydroxysuccinimide. Protein immobilization reactions were performed in PBS containing 0.005% Tween 20 at pH 4.7 and pH 5.0 for PDIA3 and DNAJC3, respectively. Binding between compounds and proteins was monitored by injecting compounds at various concentrations into PBS (pH 7.3) containing 3% DMSO and 0.005% Tween 20 at 25° C. Data were analyzed to calculate kinetic parameters by fitting sensor grams with a 1:1 binding model using Biacore T100 evaluation software (GE Healthcare).
(§2) Additionally, it was confirmed whether SB1617 directly binds to PDIA3 and DNAJC3 through surface plasmon resonance (SPR) of Examples 1-11.

[3] = molecular target: T2, PDIA3 (Homo sapiens, UniProt P30101); test: Surface plasmon resonance assay; format: binding; details: various concentrations, PBS pH 7.3, 25° C.
T2 sequence (P30101 25-505): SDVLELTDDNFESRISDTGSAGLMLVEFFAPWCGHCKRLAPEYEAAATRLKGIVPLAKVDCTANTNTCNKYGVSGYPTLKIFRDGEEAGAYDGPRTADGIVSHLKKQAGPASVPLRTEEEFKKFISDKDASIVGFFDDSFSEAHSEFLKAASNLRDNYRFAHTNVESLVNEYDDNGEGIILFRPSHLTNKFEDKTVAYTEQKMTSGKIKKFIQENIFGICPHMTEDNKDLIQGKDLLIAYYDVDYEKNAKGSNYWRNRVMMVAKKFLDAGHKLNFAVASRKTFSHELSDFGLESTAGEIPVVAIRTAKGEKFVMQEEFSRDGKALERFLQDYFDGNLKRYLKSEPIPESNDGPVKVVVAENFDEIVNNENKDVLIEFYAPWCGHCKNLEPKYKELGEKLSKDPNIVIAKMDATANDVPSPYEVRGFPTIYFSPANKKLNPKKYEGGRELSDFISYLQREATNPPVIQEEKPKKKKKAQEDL
Procedure: as §1, §2

CN(Cc1ccc(Cl)cc1)c1ncnc2c1[C@@H]1OC[C@H](CN2)N1S(=O)(=O)c1ccc([N+](=O)[O-])cc1 [Compound 117]
Kp at 0.5 h ([1]; CD-1 (ICR), mouse, brain, ip, 0.5 h after I.P. 5 mg/kg, read-out: Brain/Plasma ratio): 0.5 ± 0.14 | Kp at 3 h ([1]; CD-1 (ICR), mouse, brain, ip, 3 h after I.P. 5 mg/kg, read-out: Brain/Plasma ratio): 0.66 ± 0.21 | Kp ([1]; CD-1 (ICR), mouse, in vivo, ip, I.P. 5 mg/kg, read-out: SB1617 detected in the brain compared to plasma): ≥ 0.5 | blood-brain barrier crossing ([1]; intraperitoneal injection): sufficient blood-brain barrier crossing | concentration at 0.5 h ([1]; CD-1 (ICR), mouse, in vivo, ip, 0.5 h after I.P. 5 mg/kg, read-out: Concentration, Brain tissue): 421 ± 58.2 ng/mL | concentration at 0.5 h ([1]; CD-1 (ICR), mouse, in vivo, ip, 0.5 h after I.P. 5 mg/kg, read-out: Concentration, Plasma): 885 ± 187 ng/mL | concentration at 3 h ([1]; CD-1 (ICR), mouse, in vivo, ip, 3 h after I.P. 5 mg/kg, read-out: Concentration, Brain tissue): 55.9 ± 5 ng/mL | concentration at 3 h ([1]; CD-1 (ICR), mouse, in vivo, ip, 3 h after I.P. 5 mg/kg, read-out: Concentration, Plasma): 92.4 ± 29.8 ng/mL | direct binding (SPR) [2]: binds directly | direct binding (SPR) [3]: binds directly
